This note sets out measurements from patent publication US20170240566A1, “AMINO-SUBSTITUTED ANNULATED PYRIMIDINES AND USE THEREOF” (Bayer Pharma Aktiengesellschaft, priority 2014, published 2017).

The target of assay [1] is T1, human phosphodiesterase 5 (PDE 5) (Homo sapiens, UniProt O76074).
T1 construct: PDE 5 preparations are obtained from human platelets by disruption; from tissue; host or cells: human platelets
Description: Inhibition of human phosphodiesterase 5 (PDE 5). Type of assay: biochemical. Particulars: PDE 5 preparation from human platelets; in some cases means of individual determinations. Here is the method:
B-3. Inhibition of human phosphodiesterase 5 (PDE 5)
PDE 5 preparations are obtained from human platelets by disruption (Microfluidizer®, 800 bar, 3 passes), followed by centrifugation (75 000 g, 60 min, 4° C.) and ion exchange chromatography of the supernatant on a Mono Q 10/10 column (linear sodium chloride gradient, elution with a 0.2-0.3M solution of sodium chloride in buffer (20 mM Hepes pH 7.2, 2 mM magnesium chloride). Fractions having PDE 5 activity are combined (PDE 5 preparation) and stored at −80° C.
To determine their in vitro action on human PDE 5, the test substances are dissolved in 100% DMSO and serially diluted. Typically, dilution series (1:3) from 200 μM to 0.091 μM are prepared (resulting final concentrations in the test: 4 μM to 0.0018 μM). In each case 2 μl of the diluted substance solutions are placed into the wells of microtitre plates (Isoplate-96/200W; Perkin Elmer). Subsequently, 50 μl of a dilution of the above-described PDE 5 preparation are added. The dilution of the PDE 5 preparation is chosen such that during the later incubation less than 70% of the substrate are converted (typical dilution: 1:100; dilution buffer: 50 mM tris/hydrochloric acid pH 7.5, 8.3 mM magnesium chloride, 1.7 mM EDTA, 0.2% BSA). The substrate, [8-^3H] cyclic guanosine-3′,5′-monophosphate (1 μCi/μl; Perkin Elmer), is diluted 1:2000 with assay buffer (50 mM tris/hydrochloric acid pH 7.5, 8.3 mM magnesium chloride, 1.7 mM EDTA) to a concentration of 0.0005 μμCi/μl. By addition of 50 μl (0.025 μCi) of the diluted substrate, the enzyme reaction is finally started. The test mixtures are incubated at room temperature for 60 min and the reaction is stopped by adding 25 μl of a suspension of 18 mg/ml yttrium scintillation proximity beads in water (phosphodiesterase beads for SPA assays, RPNQ 0150, Perkin Elmer). The microtitre plates are sealed with a film and left to stand at room temperature for 60 min. Subsequently, the plates are analysed for 30 s per well in a Microbeta scintillation counter (Perkin Elmer). IC50 values are determined using the graphic plot of the substance concentration against percentage PDE 5 inhibition.

Assay [2] concerns recombinant guanylate cyclase reporter cell line. The experiment in a line: Effect on a recombinant guanylate cyclase reporter cell line. Type of assay: cell-based. Particulars: minimum effective concentration; in some cases means of individual determinations; read-out: MEC. The procedure: B-2. Effect on a Recombinant Guanylate Cyclase Reporter Cell Line
The cellular activity of the compounds of the invention is determined using a recombinant guanylate cyclase reporter cell line, as described in F. Wunder et al., Anal. Biochem. 339, 104-112 (2005). Representative values (MEC=minimum effective concentration) for the compounds of the invention are shown in the table below (Table 1; in some cases as means of individual determinations): […]

Counter-ions that a name gives are not always drawn.

By IC50 is commonly meant the concentration at which inhibition is half-maximal. A low value points to inhibition by little substance. In the case of `CC1(C(F)(F)F)C(=O)Nc2nc(-c3nn(Cc4ncccc4F)c4ncc(F)cc34)nc(NCC(N)(CF)CF)c21` (single isomer, unassigned; ent-4) [Example 19, ent-4-{[2-Amino-3-fluoro-2-(fluoromethyl)propyl]amino}-2-{5-fluoro-1-[(3-fluoropyridin-2-yl)methyl]-1H-pyrazolo[3,4-b]pyridin-3-yl}-5-methyl-5-(trifluoromethyl)-5,7-dihydro-6H-pyrrolo[2,3-d]pyrimidin-6-one (Enantiomer A)], the IC50 in assay [1] is 53 nM. Further, the minimal effective concentration in assay [2] is 0.07 µM.

`Cc1nc2c(cc1F)c(-c1nc(NCC(N)(CF)CF)c3c(n1)NC(=O)C3(C)C(F)(F)F)nn2Cc1cccc(F)c1F` (racemic) [Example 6, rac-4-{[2-Amino-3-fluoro-2-(fluoromethyl)propyl]amino}-2-[1-(2,3-difluorobenzyl)-5-fluoro-6-methyl-1H-pyrazolo[3,4-b]pyridin-3-yl]-5-methyl-5-(trifluoromethyl)-5,7-dihydro-6H-pyrrolo[2,3-d]pyrimidin-6-one] registered an IC50 in assay [1] of 32 nM. Moreover, the minimal effective concentration in assay [2] was found to be 0.1 µM.

Molecule `CC1(C(F)(F)F)C(=O)Nc2nc(-c3nn(Cc4ncccc4F)c4ncc(F)cc34)nc(NCC(N)(CF)CF)c21` (single isomer, unassigned; ent-4) [Example 20, ent-4-{[2-Amino-3-fluoro-2-(fluoromethyl)propyl]amino}-2-{5-fluoro-1-[(3-fluoropyridin-2-yl)methyl]-1H-pyrazolo[3,4-b]pyridin-3-yl}-5-methyl-5-(trifluoromethyl)-5,7-dihydro-6H-pyrrolo[2,3-d]pyrimidin-6-one (Enantiomer B)] gave a half-inhibitory concentration (IC50) in assay [1] of 120 nM. In assay [2], the minimal effective concentration turned out to be 0.65 µM.

The molecule `Cc1nc2c(cc1F)c(-c1nc(NCC(N)(CF)CF)c3c(n1)NC(=O)C3(C)C)nn2Cc1c(F)ccc(F)c1F` [Example 3, 4-{[2-Amino-3-fluoro-2-(fluoromethyl)propyl]amino}-2-[5-fluoro-6-methyl-1-(2,3,6-trifluorobenzyl)-1H-pyrazolo[3,4-b]pyridin-3-yl]-5,5-dimethyl-5,7-dihydro-6H-pyrrolo[2,3-d]pyrimidin-6-one] displayed an IC50 in assay [1] of 194 nM. The minimal effective concentration in assay [2] amounted to 0.03 µM.

Regarding `Cc1nc2c(cc1F)c(-c1nc(NCC(N)(CF)CF)c3c(n1)NC(=O)C3(C)C(F)(F)F)nn2Cc1ncccc1F` (single isomer, unassigned; ent-4) [Example 17, ent-4-{[2-Amino-3-fluoro-2-(fluoromethyl)propyl]amino}-2-{5-fluoro-1-[(3-fluoropyridin-2-yl)methyl]-6-methyl-1H-pyrazolo[3,4-b]pyridin-3-yl}-5-methyl-5-(trifluoromethyl)-5,7-dihydro-6H-pyrrolo[2,3-d]pyrimidin-6-one (Enantiomer B)], the minimal effective concentration in assay [2] was determined as 0.65 µM.

In assay [1], `Cc1nc2c(cc1F)c(-c1nc(NCC(N)(CF)CF)c3c(n1)NC(=O)C3(C)C(F)(F)F)nn2Cc1ncccc1F` (racemic) [Example 15, rac-4-{[2-Amino-3-fluoro-2-(fluoromethyl)propyl]amino}-2-{5-fluoro-1-[(3-fluoropyridin-2-yl)methyl]-6-methyl-1H-pyrazolo[3,4-b]pyridin-3-yl}-5-methyl-5-(trifluoromethyl)-5,7-dihydro-6H-pyrrolo[2,3-d]pyrimidin-6-one] came in with an IC50 of 100 nM. In assay [2], the minimal effective concentration was 0.1 µM.

Turning to `CC1(C)C(=O)Nc2nc(-c3nn(Cc4ccccc4F)c4cc(Cl)ccc34)nc(NCC(N)(CF)CF)c21` [Example 21, 4-{[2-Amino-3-fluoro-2-(fluoromethyl)propyl]amino}-2-[6-chloro-1-(2-fluorobenzyl)-1H-indazol-3-yl]-5,5-dimethyl-5,7-dihydro-6H-pyrrolo[2,3-d]pyrimidin-6-one trifluoroacetate], in assay [2], the minimal effective concentration worked out at 0.3 µM.

For the molecule `Cc1nc2c(cc1F)c(-c1nc(NCC(N)(CF)CF)c3c(n1)NC(=O)C3(C)C(F)(F)F)nn2Cc1ccccc1F` (single isomer, unassigned; ent-4) [Example 10, ent-4-{[2-Amino-3-fluoro-2-(fluoromethyl)propyl]amino}-2-[5-fluoro-1-(2-fluorobenzyl)-6-methyl-1H-pyrazolo[3,4-b]pyridin-3-yl]-5-methyl-5-(trifluoromethyl)-5,7-dihydro-6H-pyrrolo[2,3-d]pyrimidin-6-one (Enantiomer A)], in assay [1], the IC50 turned out to be 290 nM. For the same molecule, in assay [2], the minimal effective concentration was 0.2 µM.

In assay [1], `Cc1nc2c(cc1F)c(-c1nc(NCC(N)(CF)CF)c3c(n1)NC(=O)C3(C)C(F)(F)F)nn2Cc1c(F)ccc(F)c1F` (single isomer, unassigned; ent-4) [Example 13, ent-4-{[2-Amino-3-fluoro-2-(fluoromethyl)propyl]amino}-2-[5-fluoro-6-methyl-1-(2,3,6-trifluorobenzyl)-1H-pyrazolo[3,4-b]pyridin-3-yl]-5-methyl-5-(trifluoromethyl)-5,7-dihydro-6H-pyrrolo[2,3-d]pyrimidin-6-one (Enantiomer A)] yielded an IC50 of 300 nM. In addition, in assay [2], the minimal effective concentration was 0.3 µM.

Take `CC1(C(F)(F)F)C(=O)Nc2nc(-c3nn(Cc4ncccc4F)c4ncc(F)cc34)nc(NCC(N)(CF)CF)c21` (racemic) [Example 18, rac-4-{[2-Amino-3-fluoro-2-(fluoromethyl)propyl]amino}-2-{5-fluoro-1-[(3-fluoropyridin-2-yl)methyl]-1H-pyrazolo[3,4-b]pyridin-3-yl}-5-methyl-5-(trifluoromethyl)-5,7-dihydro-6H-pyrrolo[2,3-d]pyrimidin-6-one]: 100 nM corresponded to half-maximal inhibition in assay [1] (IC50). Also, the minimal effective concentration in assay [2] stood at 0.1 µM.

In assay [1], `Cc1nc2c(cc1F)c(-c1nc(NCC(N)(CF)CF)c3c(n1)NC(=O)C3(C)C(F)(F)F)nn2Cc1ccccc1F` (single isomer, unassigned; ent-4) [Example 11, ent-4-{[2-Amino-3-fluoro-2-(fluoromethyl)propyl]amino}-2-[5-fluoro-1-(2-fluorobenzyl)-6-methyl-1H-pyrazolo[3,4-b]pyridin-3-yl]-5-methyl-5-(trifluoromethyl)-5,7-dihydro-6H-pyrrolo[2,3-d]pyrimidin-6-one (Enantiomer B)] yielded a 50% inhibitory concentration (IC50) of 390 nM. Also, in assay [2], the minimal effective concentration is 0.1 µM.

On to `Cc1nc2c(cc1F)c(-c1nc(NCC(N)(CF)CF)c3c(n1)NC(=O)C3(C)C(F)(F)F)nn2Cc1ncccc1F` (single isomer, unassigned; ent-4) [Example 16, ent-4-{[2-Amino-3-fluoro-2-(fluoromethyl)propyl]amino}-2-{5-fluoro-1-[(3-fluoropyridin-2-yl)methyl]-6-methyl-1H-pyrazolo[3,4-b]pyridin-3-yl}-5-methyl-5-(trifluoromethyl)-5,7-dihydro-6H-pyrrolo[2,3-d]pyrimidin-6-one (Enantiomer A)], for which half-maximal inhibition in assay [1] (IC50) required 57 nM. Besides, the minimal effective concentration in assay [2] is recorded as 0.07 µM.

In assay [1], `Cc1nc2c(cc1F)c(-c1nc(NCC(N)(CF)CF)c3c(n1)NC(=O)C3(C)C(F)(F)F)nn2Cc1cccc(F)c1F` (single isomer, unassigned; ent-4) [Example 7, ent-4-{[2-Amino-3-fluoro-2-(fluoromethyl)propyl]amino}-2-[1-(2,3-difluorobenzyl)-5-fluoro-6-methyl-1H-pyrazolo[3,4-b]pyridin-3-yl]-5-methyl-5-(trifluoromethyl)-5,7-dihydro-6H-pyrrolo[2,3-d]pyrimidin-6-one (Enantiomer A)] came in with an IC50 of 120 nM. In addition, the minimal effective concentration in assay [2] amounted to 0.3 µM.

Molecule `Cc1nc2c(cc1F)c(-c1nc(NCC(N)(CF)CF)c3c(n1)NC(=O)C3(C)C(F)(F)F)nn2Cc1cccc(F)c1F` (single isomer, unassigned; ent-4) [Example 8, ent-4-{[2-Amino-3-fluoro-2-(fluoromethyl)propyl]amino}-2-[1-(2,3-difluorobenzyl)-5-fluoro-6-methyl-1H-pyrazolo[3,4-b]pyridin-3-yl]-5-methyl-5-(trifluoromethyl)-5,7-dihydro-6H-pyrrolo[2,3-d]pyrimidin-6-one (Enantiomer B)] came in with an IC50 in assay [1] of 120 nM. In assay [2], the minimal effective concentration is on record as 0.1 µM.
